In assay [1] the test system is EA.hy926 (Human endothelial cells). Kind of assay: endothelial cell proliferation by MTT assay. The format is cell-based. Conditions: 72 h. On the procedure: The cell line used for the study was EA.hy926 (Human endothelial cells) which was procured from National Centre for Cell Science, Pune (India). The cell line was maintained in DMEM+10% FBS (heat inactivated) at 37° C. with 5% CO2, and 95% humidity. […] Untreated cells with complete medium (10% FBS) served as complete medium control, cells with sera free medium served as SFM control and the cells treated with Paclitaxel served as positive control.
The percentage cytotoxicity corresponding to each treatment was calculated.
(Formazan colour is commonly taken as a measure of viable cells.)

The test system is the same in assay [2]. Kind of assay: Cell migration by scratch assay in endothelial cells. The format is cell-based. Conditions: Homo sapiens, read-out: Inhibition of migration with respect to untreated; for inhibition at 0.0001 µM: 0.1 nM; for inhibition at 0.001 µM: 1 nM; for inhibition at 0.0025 µM: 2.5 nM; for inhibition at 0.005 µM: 5 nM; for inhibition at 0.01 µM: 10 nM. On the procedure: EA.hy296 cells were counted using hemocytometer and plated in 6-well plates at the density of 0.5×10^6 cells/well. The cells were incubated overnight under growth conditions as described above so as to allow cell recovery and exponential growth. Following overnight incubation, a small linear scratch (representative wound) was created in the confluent monolayer (middle of the well) by gently scraping with sterile 200 μl micropipette tip. Photomicrographs of the scratch were taken at 0 h (Initial time point). Cells were rinsed with serum free DMEM and grouped for treatment in two different serum conditions:
• Baseline control: Cells+DMEM • Positive/Validation control: Baseline control+Positive Control. Test: Baseline control+Test Item
• Baseline control: Cells+DMEM+1% FBS • Positive/Validation control: Baseline control+Positive Control. • Test: Baseline control+Test item
Photomicrographs of the scratch were taken at 24 h-72 h time points. The photomicrographs obtained in the above step were analyzed for quantitative assessment of area of wound closure using ImageJ tool software. Percentage migration with respect to untreated cells at different time points was calculated.

Assay [3] relates to HT-29 (Colorectal cancer). The experiment in a line: Xenograft study. The assay is classed as in vivo, mice. The note with it: HT-29 xenograft, IP. An excerpt:
(§1) The Xenograft models used were HT-29, KB, PA-1, MCF-7, PANC-1, T24 and MDA-MB-231. The basic study design for the Xenograft study was as follows: • 1. Cell maintenance and cell suspension preparation • 2. Aseptic injection of tumor cell suspension in the donor animal • 3. Randomization of animals in respective groups • 4. IP dosing of test items in predetermined doses • 5. IP administration of standard • 6. After completion of dosing period. • 7. The Tumor volume recording weekly twice while body weight and clinical signs daily.

Assay [4] concerns neovascularization of Matrigel plug containing FGF-2 (bFGF). The experiment in a line: Matrigel plug assay (in-vivo anti-angiogenesis). The note with it: G3, 55 mg/Kg, qdx15. Details: species or system C57BL/6 mice. On the procedure:
Healthy C57BL/6 mice were selected and grouped on the basis of body weight into […] (G1-G4, n=7). Each mouse of group G2-G4 was subcutaneously injected at right flank region with 500 μl of matrigel containing 500 ng of FGF-2 (bFGF). Whereas mice of G1 group were subcutaneously injected at right flank region with 500 μl of matrigel only. In this assay, angiogenesis-inducing compounds such as bFGF was introduced into cold liquid Matrigel which, after subcutaneous injection, solidified and permits penetration by host cells and the formation of new blood vessels (neovascularization).
Required amount of test items were taken and added to an appropriate volume of Tris Buffered Saline (TBS) to achieve the required concentrations. The dose volume given to animal was 10 mL/Kg.
Daily cage-side observations were carried out to detect any clinical signs or mortality and recorded throughout the experiment period.

Assay [5] concerns PANC-1 (Pancreas/duct epithelioid carcinoma). The experiment in a line: Xenograft study. The assay is classed as in vivo, mice. Conditions: PANC-1 xenograft, IP.
Excerpt: as §1

Molecules are shown by their SMILES. Read-outs that look alike come from different tables or passages of the source.

In the case of `CC(=O)O[C@H]1C(=O)[C@@]2(C)[C@H]([C@H](OC(=O)c3ccccc3)[C@]3(O)C[C@H](OC(=O)[C@H](O)[C@@H](NC(=O)c4ccccc4)c4ccccc4)C(C)=C1C3(C)C)[C@]1(OC(C)=O)CO[C@@H]1C[C@@H]2O` [Paclitaxel, reference compound], the “Mean (MTT absorbance)” value came out at 0.93 in assay [1] (1 nM), 0.89 in assay [1] (10 nM), 0.57 in assay [1] (100 nM) and 0.45 in assay [1] (1000 nM). For the same compound, the inhibition at 0.001 µM in assay [1] (Homo sapiens, EA.hy 926, 1 nM, read-out: % inhibition of FBS stimulated cell growth) was 42%; in assay [2] (EA.hy 926, 24 h, 24 h, 1% FBS) it was 7.8%; in assay [2] (EA.hy 926, 24 h, 24 h, SFM), 28.5%; in assay [2] (EA.hy 926, 48 h, 48 h, 1% FBS), 2.1%; in assay [2] (EA.hy 926, 48 h, 48 h, SFM), 36.8%; in assay [2] (EA.hy 926, 72 h, 72 h, SFM) it was 32.7%. Moreover, the inhibition at 0.01 µM in assay [1] (Homo sapiens, EA.hy 926, 10 nM, read-out: % inhibition of FBS stimulated cell growth) worked out at 44.7%; in assay [2] (EA.hy 926, 24 h, 24 h, 1% FBS), 44.4%; in assay [2] (EA.hy 926, 24 h, 24 h, SFM), 58.9%; in assay [2] (EA.hy 926, 48 h, 48 h, 1% FBS) it was 37.2%; in assay [2] (EA.hy 926, 48 h, 48 h, SFM), 60.2%; in assay [2] (EA.hy 926, 72 h, 72 h, SFM), 56.3%. Also, in assay [1] (Homo sapiens, EA.hy 926, 100 nM, read-out: % inhibition of FBS stimulated cell growth), the inhibition at 0.1 µM turned out to be 64.5%. Further, the inhibition at 1 µM in assay [1] (Homo sapiens, EA.hy 926, 1000 nM, read-out: % inhibition of FBS stimulated cell growth) amounted to 71.7%. In addition, the inhibition at 0.0001 µM in assay [2] (EA.hy 926, 24 h, 24 h, 1% FBS) is -1.1%; in assay [2] (EA.hy 926, 24 h, 24 h, SFM) it was 26.5%; in assay [2] (EA.hy 926, 48 h, 48 h, 1% FBS), -0.2%; in assay [2] (EA.hy 926, 48 h, 48 h, SFM), 21.1%; in assay [2] (EA.hy 926, 72 h, 72 h, SFM), 7.8%. For the same compound, the inhibition at 0.0025 µM in assay [2] (EA.hy 926, 24 h, 24 h, 1% FBS) was 25.9%; in assay [2] (EA.hy 926, 24 h, 24 h, SFM) it was 51.4%; in assay [2] (EA.hy 926, 48 h, 48 h, 1% FBS), 18.3%; in assay [2] (EA.hy 926, 48 h, 48 h, SFM) it was 51.6%; in assay [2] (EA.hy 926, 72 h, 72 h, SFM), 42.8%. The inhibition at 0.005 µM in assay [2] (EA.hy 926, 24 h, 24 h, 1% FBS) was 25%; in assay [2] (EA.hy 926, 24 h, 24 h, SFM) it was 43.7%; in assay [2] (EA.hy 926, 48 h, 48 h, 1% FBS) it was 10.6%; in assay [2] (EA.hy 926, 48 h, 48 h, SFM), 45.2%; in assay [2] (EA.hy 926, 72 h, 72 h, SFM), 47.3%.
For `O=c1[nH]cc(F)c(=O)[nH]1` [5-Fluorourasil, reference compound], in assay [3], the “Maximum Tumor Growth Inhibition (%)” value is 62.94% and the “Tumor Volume (mm^3) (Mean ± SEM)” value stood at 1362 ± 155 mm^3.
With `CCN(CC)CCNC(=O)c1c(C)[nH]c(/C=C2\C(=O)Nc3ccc(F)cc32)c1C` [Sunitinib, reference compound], in assay [4] (p.o.), the “Hemoglobin Content in the Matrigel Plug Section, Mean” value was determined as 21.92 and the “reduction in hemoglobin content in homogenate of Matrigel plug compared to positive control” value was 59.2%. Also, in assay [4], the “Histological Observation, Fat cell Infiltration, Mean” value is 0.71; the “Histological Observation, Fibroblast Infiltration, Mean” value came out at 2.43; the “Histological Observation, MN cell Infiltration, Mean” value was 1.57; the “Histological Observation, Neovascularization, Mean” value is on record as 1.14.
`Nc1ccn([C@@H]2O[C@H](CO)[C@@H](O)C2(F)F)c(=O)n1` [Gemcitabine, reference compound]: in assay [5], the “Maximum Tumor Growth Inhibition (%)” value is given as 61.49% and the “Tumor Volume (mm^3) (Mean ± SEM)” value is recorded as 503.93 ± 151.27 mm^3.

The record behind these values is patent US20230348564A1, “ANTI-CANCER PROTEINS” (UNICHEM LABORATORIES LTD, priority 2020, published 2023).
